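1) Cells in 96-well plates. 2) Compound, 48 h, 5 concentrations. 3) Linear interpolation between surrounding doses. 4) Unreached endpoint = highest concentration. GI50 is the concentration that inhibits growth by half. At the TGI there is no net growth.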
Columns and labels:
Assay in all cases: NCI-60 cell line screen, 48 h
EKVX NSCLC = test system: EKVX NSCLC
HCT-116 colon = test system: HCT-116 colon
HT29 colon = test system: HT29 colon
M14 melanoma = test system: M14 melanoma
MDA-MB-231 breast = test system: MDA-MB-231 breast
NCI-H460 lung = test system: NCI-H460 lung
SF-268 CNS = test system: SF-268 CNS
SK-MEL-28 melanoma = test system: SK-MEL-28 melanoma
SR leukemia = test system: SR leukemia
U251 CNS = test system: U251 CNS

Structure (SMILES)	GI50 (EKVX NSCLC)	TGI (EKVX NSCLC)	GI50 (HCT-116 colon)	TGI (HCT-116 colon)	GI50 (HT29 colon)	TGI (HT29 colon)	GI50 (M14 melanoma)	TGI (M14 melanoma)	GI50 (MDA-MB-231 breast)	TGI (MDA-MB-231 breast)	GI50 (NCI-H460 lung)	TGI (NCI-H460 lung)	GI50 (SF-268 CNS)	TGI (SF-268 CNS)	GI50 (SK-MEL-28 melanoma)	TGI (SK-MEL-28 melanoma)	GI50 (SR leukemia)	TGI (SR leukemia)	GI50 (U251 CNS)	TGI (U251 CNS)
COc1cccc(NCc2nnc(Nc3ccc(Cl)cc3)c3ccccc23)c1	0.588 µM	6.4 µM	0.881 µM	4.2 µM	0.34 µM	3.62 µM	0.85 µM	4.69 µM	1.32 µM	6.32 µM	2.69 µM	7.14 µM	2.05 µM	10.5 µM	2.62 µM	6.17 µM	0.979 µM	8.85 µM	2.78 µM	6.54 µM
COc1cc([C@@H]2c3cc4c(cc3C(O[C@@H]3O[C@@H]5CO[C@@H](c6cccs6)OC5[C@H](O)[C@H]3O)C3COC(=O)[C@@H]32)OCO4)cc(OC)c1O (some centres not stated)	0.677 µM	14.4 µM	0.0721 µM	1.28 µM	0.123 µM	1.1 µM	0.0732 µM	0.888 µM	0.267 µM	3.58 µM	< 0.005 µM	0.278 µM	0.0693 µM	1.54 µM	0.171 µM	0.953 µM	< 0.005 µM	0.0249 µM	0.0256 µM	1.37 µM
COc1ccc(-n2cc(-c3cc(OC)c(OC)c(OC)c3)[nH]c2=S)cc1OC	> 100 µM	> 100 µM	> 100 µM	> 100 µM	> 100 µM	> 100 µM	> 100 µM	> 100 µM	> 100 µM	> 100 µM	> 100 µM	> 100 µM	> 100 µM	> 100 µM	> 100 µM	> 100 µM	2.57 µM	8.76 µM	> 100 µM	> 100 µM
O=C(C[C@@H](C(=O)NCc1cccc(C(F)(F)F)c1)N1C(=O)[C@@H](N2C(=O)OC[C@@H]2c2ccccc2)[C@H]1/C=C/c1ccccc1)NC1CCN(Cc2ccccc2)CC1	15.1 µM	41.7 µM	1.95 µM	4.04 µM	1.67 µM	3.53 µM	4.58 µM	20.4 µM	4.02 µM	20 µM	6.58 µM	21.8 µM	3.81 µM	21.4 µM	2.19 µM	5.8 µM	1.89 µM	5.43 µM	4.58 µM	17.2 µM
C=C1C(=O)O[C@H]2[C@H]1CC/C(COC(=O)/C=C\C(=O)NCc1ccc(Cn3c(=O)sn(-c4ccc(C#N)cc4)c3=O)cc1)=C\CC[C@@]1(C)O[C@@H]21	0.797 µM	1.57 µM	0.218 µM	0.956 µM	0.474 µM	1.9 µM	0.699 µM	1.66 µM	0.72 µM	1.74 µM	0.844 µM	1.83 µM	0.724 µM	1.41 µM	0.857 µM	1.61 µM	0.292 µM	50 µM	0.759 µM	1.62 µM
CNC1C(=O)C(C)C(O)(C(CC(C)C(O)/C=C/C=C/CNC(=O)C(C)(C)C(O)\C(C)=C/C=C\C=C\Cc2cnc(C)o2)OC)C12C(=O)OC2COC (configuration not stated) (tested in a mixture with another compound)	–	> 64.4 µM	–	> 49.9 µM	–	20.7 µM	–	27 µM	–	> 63.3 µM	–	> 100 µM	–	42.9 µM	–	> 100 µM	–	48.1 µM	–	> 52.2 µM
COc1ccc2cc(C(=O)/C=C/c3cccc(OC)c3OC)ccc2c1	17.9 µM	36.7 µM	3.62 µM	13.3 µM	4.07 µM	17.6 µM	4.58 µM	16.6 µM	14.8 µM	38.5 µM	18.3 µM	37.5 µM	24.2 µM	50.8 µM	19.4 µM	44.5 µM	2.88 µM	> 100 µM	7.9 µM	22 µM
NCCCCn1c2c(c3ccccc3c1=O)C(=O)c1ccccc1-2	1.21 µM	4.62 µM	0.092 µM	1.76 µM	0.163 µM	–	0.417 µM	1.86 µM	0.23 µM	0.848 µM	< 0.0218 µM	0.614 µM	0.208 µM	1.86 µM	0.671 µM	–	–	0.0486 µM	0.0485 µM	0.824 µM
O=c1[nH]c(=O)n(C2CC(O)C(CS)O2)cc1F (configuration not stated)	–	> 100 µM	–	> 100 µM	–	> 100 µM	–	> 100 µM	–	> 100 µM	–	> 100 µM	–	> 100 µM	–	> 100 µM	–	> 100 µM	–	> 100 µM
COc1cc(Cn2c(-c3ccccc3)cc3c2-c2oncc2CC3)cc(OC)c1OC	1.39 µM	> 100 µM	0.464 µM	91.7 µM	0.446 µM	47.2 µM	0.468 µM	13.4 µM	2.82 µM	> 100 µM	0.452 µM	> 100 µM	5.77 µM	> 100 µM	1.14 µM	45.9 µM	0.42 µM	43.2 µM	0.947 µM	35.4 µM
COc1ccc(C2CC(=O)c3c(O)c(OC)c(OC)c(OC)c3O2)c(O)c1 (configuration not stated)	0.232 µM	88.8 µM	0.053 µM	60.9 µM	2.64 µM	> 100 µM	0.0834 µM	15.4 µM	0.997 µM	31.7 µM	0.0637 µM	10.9 µM	0.534 µM	38.3 µM	10.5 µM	25.6 µM	0.0582 µM	27 µM	0.0985 µM	36.1 µM

From PubChem BioAssay (NCI)
